Laboratory results from ChEMBL document CHEMBL1201862, “PubChem BioAssay data set” (2004).
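Tested at 5 concentrations; 48 h exposure; 96-well plates; endpoints linearly interpolated, else capped at highest concentration. GI50: concentration for 50% inhibition of growth.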 The source made the active and inactive calls. No stated cut-off is given here; in the data, active = GI50 up to about 1.1 µM and inactive = higher.

What was measured:
Experiment in all cases: NCI anticancer screen, dose series, 48 h
[1] = tested on: A498
[2] = tested on: COLO 205
[3] = tested on: HCT-116
[4] = tested on: HL-60
[5] = tested on: HOP-92
[6] = tested on: LXFL 529
[7] = tested on: Malme-3M
[8] = tested on: NCI-H23
[9] = tested on: NCI-H460
[10] = tested on: OVCAR-3
[11] = tested on: OVCAR-5
[12] = tested on: SF-539
[13] = tested on: SK-MEL-2
[14] = tested on: SK-MEL-5
[15] = tested on: SW-620
[16] = tested on: UACC-62
[17] = tested on: CAKI-1
[18] = tested on: SK-OV-3
[19] = tested on: BT-549
[20] = tested on: MDA-MB-435

SMILES	GI50 [1]	GI50 [2]	GI50 [3]	GI50 [4]	GI50 [5]	GI50 [6]	GI50 [7]	GI50 [8]	GI50 [9]	GI50 [10]	GI50 [11]	GI50 [12]	GI50 [13]	GI50 [14]	GI50 [15]	GI50 [16]	GI50 [17]	GI50 [18]	GI50 [19]	GI50 [20]
CC/C(CC(=O)CCC(=O)Nc1c(C)cccc1C)=N\NC(=O)NN	> 100 µM (inactive)	> 100 µM (inactive)	> 100 µM (inactive)	> 100 µM (inactive)	> 100 µM (inactive)	> 100 µM (inactive)	> 100 µM (inactive)	> 100 µM (inactive)	> 100 µM (inactive)	> 100 µM (inactive)	> 100 µM (inactive)	> 100 µM (inactive)	> 100 µM (inactive)	> 100 µM (inactive)	> 100 µM (inactive)	> 100 µM (inactive)				
CCOC(=O)CN(Cc1ccccc1)Cc1c(C(=O)c2ccccc2)c2ccccc2n1C(=O)c1ccccc1	> 100 µM (inactive)	> 100 µM (inactive)	32.7 µM (inactive)		10.4 µM (inactive)	8.57 µM (inactive)	> 100 µM (inactive)	> 100 µM (inactive)	> 100 µM (inactive)	> 100 µM (inactive)	> 100 µM (inactive)	> 100 µM (inactive)	> 100 µM (inactive)	96.8 µM (inactive)	> 100 µM (inactive)	> 100 µM (inactive)	> 100 µM (inactive)	> 100 µM (inactive)		
O=Cc1cc(O)c(O)c(O)c1-c1c(C=O)cc(O)c(O)c1O	> 100 µM (inactive)	> 100 µM (inactive)	> 100 µM (inactive)	> 100 µM (inactive)		> 100 µM (inactive)	> 100 µM (inactive)	> 100 µM (inactive)	> 100 µM (inactive)	> 100 µM (inactive)	> 100 µM (inactive)	> 100 µM (inactive)	> 100 µM (inactive)	> 100 µM (inactive)	> 100 µM (inactive)	> 100 µM (inactive)	> 100 µM (inactive)	> 100 µM (inactive)		
Cc1cccc(C2SCc3nc4ccccc4n32)c1 (stereo unspecified)		> 10 µM (inactive)	17.7 µM (inactive)	6.78 µM (inactive)	14.7 µM (inactive)	25.2 µM (inactive)	14.7 µM (inactive)	> 10 µM (inactive)	27.7 µM (inactive)	17.8 µM (inactive)	5.25 µM (inactive)	33.8 µM (inactive)	18.5 µM (inactive)	14.3 µM (inactive)	39.2 µM (inactive)	27.8 µM (inactive)	31 µM (inactive)	24.7 µM (inactive)		
COC(=O)CCC1CCc2c(OC)ccc(O)c2C1=O (stereo unspecified)	> 100 µM (inactive)	> 100 µM (inactive)	> 100 µM (inactive)	> 100 µM (inactive)		> 100 µM (inactive)	> 100 µM (inactive)	> 100 µM (inactive)	> 100 µM (inactive)	> 100 µM (inactive)		> 100 µM (inactive)	> 100 µM (inactive)	> 100 µM (inactive)	> 100 µM (inactive)	> 100 µM (inactive)		> 100 µM (inactive)		
O=NN(CCCl)C(=O)NCc1ccc[n+]([O-])c1		> 100 µM (inactive)	> 100 µM (inactive)	76.4 µM (inactive)	15.8 µM (inactive)	> 100 µM (inactive)	> 100 µM (inactive)	> 100 µM (inactive)	45.7 µM (inactive)	> 100 µM (inactive)	> 100 µM (inactive)	43.9 µM (inactive)	> 100 µM (inactive)	> 100 µM (inactive)	> 100 µM (inactive)	11.7 µM (inactive)	> 100 µM (inactive)	> 100 µM (inactive)		
CC1=CCC2(C#N)CCC1C2=O (stereo unspecified)	> 100 µM (inactive)	> 100 µM (inactive)	> 100 µM (inactive)	> 100 µM (inactive)		> 100 µM (inactive)	> 100 µM (inactive)	> 100 µM (inactive)	> 100 µM (inactive)	> 100 µM (inactive)	> 100 µM (inactive)	> 100 µM (inactive)	> 100 µM (inactive)	> 100 µM (inactive)	> 100 µM (inactive)	> 100 µM (inactive)	> 100 µM (inactive)	> 100 µM (inactive)		
CC1=CC(=O)CCC2(C)C1CC[C@@H]2OC=O (stereo partly specified)		> 100 µM (inactive)	> 100 µM (inactive)	> 100 µM (inactive)	> 100 µM (inactive)	> 100 µM (inactive)		> 100 µM (inactive)	> 100 µM (inactive)	> 100 µM (inactive)	> 100 µM (inactive)	> 100 µM (inactive)	> 100 µM (inactive)	> 100 µM (inactive)	> 100 µM (inactive)	> 100 µM (inactive)	> 100 µM (inactive)	> 100 µM (inactive)		
COC(=O)c1cc2c3ccccc3n(C(C)=O)c2cn1		92.5 µM (inactive)	> 100 µM (inactive)	35.7 µM (inactive)	49 µM (inactive)	66.4 µM (inactive)	> 100 µM (inactive)	83.4 µM (inactive)	35.6 µM (inactive)	98.6 µM (inactive)	> 100 µM (inactive)	> 100 µM (inactive)	> 100 µM (inactive)	> 100 µM (inactive)	> 100 µM (inactive)	76.9 µM (inactive)	23.2 µM (inactive)	> 100 µM (inactive)		
Cc1cn(C2CC3C(COCN3O)O2)c(=O)[nH]c1=O (stereo unspecified)		> 100 µM (inactive)	> 100 µM (inactive)	> 100 µM (inactive)		> 100 µM (inactive)		> 100 µM (inactive)	> 100 µM (inactive)	> 100 µM (inactive)	> 100 µM (inactive)	> 100 µM (inactive)		> 100 µM (inactive)	> 100 µM (inactive)	> 100 µM (inactive)		> 100 µM (inactive)		
CC(=O)Nc1c(C)cc2c(nc3n2CCC3O)c1[N+](=O)[O-] (stereo unspecified)	> 100 µM (inactive)	> 100 µM (inactive)	> 100 µM (inactive)	> 100 µM (inactive)	> 100 µM (inactive)		> 100 µM (inactive)	> 100 µM (inactive)	> 100 µM (inactive)	> 100 µM (inactive)	> 100 µM (inactive)	> 100 µM (inactive)	> 100 µM (inactive)	> 100 µM (inactive)	> 100 µM (inactive)	> 100 µM (inactive)	> 100 µM (inactive)	> 100 µM (inactive)	> 100 µM (inactive)	> 100 µM (inactive)
COc1ccc(-c2cc3ccccc3[nH]c2=O)cc1OC		> 100 µM (inactive)	> 100 µM (inactive)	> 100 µM (inactive)		> 100 µM (inactive)	> 100 µM (inactive)	> 100 µM (inactive)	> 100 µM (inactive)		> 100 µM (inactive)	> 100 µM (inactive)	> 100 µM (inactive)		> 100 µM (inactive)	> 100 µM (inactive)	> 100 µM (inactive)	> 100 µM (inactive)		
N#Cc1cc2c(cc1Cl)Sc1nccn1S2(=O)=O	18.3 µM (inactive)	12.4 µM (inactive)	1.79 µM (inactive)	3.08 µM (inactive)	4.93 µM (inactive)		6.79 µM (inactive)	1.51 µM (inactive)	9.53 µM (inactive)	0.668 µM (active)	14.4 µM (inactive)	3.7 µM (inactive)	3.74 µM (inactive)	9.93 µM (inactive)	3.54 µM (inactive)	2.55 µM (inactive)	1.4 µM (inactive)	4.47 µM (inactive)	3.32 µM (inactive)	4.91 µM (inactive)
C[S+](C)CC(=O)c1ccc2c(c1)Sc1ccccc1O2	8.41 µM (inactive)	1.02 µM (active)	1.32 µM (inactive)	1.61 µM (inactive)	3.74 µM (inactive)		3.45 µM (inactive)	3.49 µM (inactive)	5.3 µM (inactive)	2.4 µM (inactive)	5.87 µM (inactive)	0.69 µM (active)	3.4 µM (inactive)	1.08 µM (active)	2.33 µM (inactive)	3.91 µM (inactive)	4.39 µM (inactive)	6.04 µM (inactive)	2.18 µM (inactive)	0.923 µM (active)
O=C1CC(n2cccc2)c2cc(Br)sc21 (stereo unspecified)	> 100 µM (inactive)	> 100 µM (inactive)	66.7 µM (inactive)	14.5 µM (inactive)	> 100 µM (inactive)		> 100 µM (inactive)	39.1 µM (inactive)	> 100 µM (inactive)	> 100 µM (inactive)	> 100 µM (inactive)	> 100 µM (inactive)	> 100 µM (inactive)	> 100 µM (inactive)	35 µM (inactive)	> 100 µM (inactive)	> 100 µM (inactive)	> 100 µM (inactive)	> 100 µM (inactive)	87.5 µM (inactive)
CO[C@H]1[C@@H](O)[C@@H](C)O[C@@H](O[C@H]2CC[C@@]3(C)[C@H](CC[C@@H]4[C@@H]3CC[C@]3(C)[C@@H](C5=CC(=O)OC5)[C@@H](OC(C)=O)C[C@]43O)C2)[C@@H]1O [NERITALOSIDE]	0.281 µM (active)	0.156 µM (active)	0.0219 µM (active)	0.0566 µM (active)	0.149 µM (active)		0.016 µM (active)	0.027 µM (active)	0.0165 µM (active)	0.0229 µM (active)	0.0914 µM (active)	0.0248 µM (active)	0.129 µM (active)	0.0405 µM (active)	0.111 µM (active)	0.1 µM (active)	0.0208 µM (active)	0.0807 µM (active)	0.0331 µM (active)	0.124 µM (active)
